How the values were obtained:
[1] = Compound was tested for its cytotoxic activity in uninfected human peripheral blood mononuclear (PBM) cells; type: functional
[2] = Compound was tested for its anti-HIV activity against HIV-1 LAI in human peripheral blood mononuclear (PBM) cells; type: functional
[3] = test system: Vero; assay: Compound was tested for its cytotoxic activity in uninfected Vero cells; type: functional, cell-based; conditions: Chlorocebus sabaeus
[4] = test system: HepG2; assay: Percent inhibition for its anti-HBV activity in infected HepG2(2.2.15) cells at concentration of 1 uM; type: functional; conditions: Homo sapiens
[5] = test system: MT4; assay: Compound was tested for its anti-HIV activity in acutely infected MT-4 cells; type: functional, cell-based; conditions: Homo sapiens
[6] = test system: HepG2; assay: Percent inhibition for its anti-HBV activity in infected HepG2(2.2.15) cells at concentration of 25 uM; type: functional; conditions: Homo sapiens

SMILES	EC50 [2] [µM]	IC50 [1] [µM]	IC50 [3] [µM]	inhibition at 1 µM [4] [%]	EC50 [5] [µM]	inhibition at 25 µM [6] [%]
Cc1cn([C@H]2CS[C@@H](CO)O2)c(=O)[nH]c1=O	64.4	> 100	> 100		> 200	0
Cc1cn([C@H]2CS[C@@H](CO)O2)c(=O)nc1N	> 100	> 100	> 100		> 200	0
O=c1[nH]c(=O)n([C@H]2CS[C@@H](CO)O2)cc1Cl	60.8	> 100	> 100		> 200	59
O=c1[nH]c(=O)n([C@H]2CS[C@@H](CO)O2)cc1I	> 100	> 100	> 100		> 200	0
O=c1ccn([C@H]2CS[C@@H](CO)O2)c(=O)[nH]1	> 100	> 100	> 100		> 200	0
O=c1[nH]c(=O)n([C@H]2CS[C@@H](CO)O2)cc1Br	> 100	> 100	> 100		> 200	11
O=c1[nH]c(=O)n([C@H]2CS[C@@H](CO)O2)cc1F	> 100	> 100	> 100		> 200	75
Nc1nc(=O)n([C@H]2CS[C@@H](CO)O2)cc1Cl	38.7	> 100	> 100		> 200	58

Now those with a lower EC50 [2], led by results:

EC50 [2] [µM]	SMILES	IC50 [1] [µM]	IC50 [3] [µM]	inhibition at 1 µM [4] [%]	EC50 [5] [µM]	inhibition at 25 µM [6] [%]
0.06	Nc1ccn([C@@H]2CS[C@H](CO)O2)c(=O)n1 [LAMIVUDINE]	> 100	> 100	87	7	
0.72	Nc1nc(=O)n([C@H]2CS[C@@H](CO)O2)cc1I	> 100	> 100		> 200	55
0.01	Nc1nc(=O)n([C@H]2CS[C@@H](CO)O2)cc1F	> 100	> 100	90	2.1	
2.4	Nc1nc(=O)n([C@H]2CS[C@@H](CO)O2)cc1Br	> 100	> 100		> 200	84
